Results as given in paper PMC8643917, “982. Effect of Hepatic Impairment on the Safety and Pharmacokinetics of Rezafungin” (Open Forum Infectious Diseases, 2021).
Like-named read-outs stand apart in the source and are kept apart here. *1 amine or outer side, *2 acyl side, *3 side chain or, on linkers, in order; H or OH if unused. Where a SMILES comes first, the peptide text is derived from it. Bridges are numbered along the chain shown (N, C = ends). [ ]: non-standard residue; d: D form. The star is where a group is joined. Orn(4R-OH,5R-OCH2CH2NMe3+) = C[N+](C)(C)CCO[C@@H](N[*:3])[C@H](O)C[C@H](N[*:1])C(=O)[*:2]; pTerphenylCO(4''-OnC5H11) = CCCCCOc1ccc(-c2ccc(-c3ccc(C(=O)*)cc3)cc2)cc1; hTyr(3S-OH,4S-OH) = N[C@H](C(=O)O)[C@H](O)[C@@H](O)c1ccc(O)cc1; Pro(3S-OH,4S-Me) = C[C@H]1CN[C@H](C(=O)O)[C@H]1O; Hyp = O=C(O)[C@@H]1C[C@@H](O)CN1

Legend:
[1] = Plasma pharmacokinetics of rezafungin after a single 400-mg IV 1-hour infusion, open-label single-dose study, non-compartmental analysis; format: in vivo, human; settings: for half-life: n = 8, plasma sampling through 336 hours postdose, non-compartmental analysis
From the text: (§1) Abstract Background Rezafungin (RZF) is a novel echinocandin antifungal being developed for treatment of candidemia and invasive candidiasis, and for prevention of invasive fungal diseases among immunosuppressed patients. In the Phase 2 and Phase 3 treatment trials of rezafungin compared with caspofungin (STRIVE [NCT02734862] and ReSTORE [NCT03667690], respectively), patients with severe hepatic impairment (HI) were not included due to lack of caspofungin data in this population. Rezafungin was previously evaluated in patients with moderate hepatic impairment. Here we report an open-label, single-dose study on rezafungin in patients with HI (Child-Pugh class C). Methods To investigate the safety, tolerability, and pharmacokinetics (PK) of RZF in subjects with HI and healthy subjects (HS), 8 subjects with HI and 8 HS matched for age, sex, and body mass index (BMI) were enrolled and received a single 400-mg intravenous 1-hour infusion of RZF. Plasma PK sampling was performed at various time points through 336 hours postdose. RZF PK parameters were derived using non-compartmental analysis. Safety was assessed throughout the study. Results The majority of the HI subjects were White (87.5%) and male (75%) while equal distribution between White and Black or African American was observed among HS (50%) and 75% were male. The mean age of HI subjects was 58 years (range, 41–68 years) and 56.6 years (range, 50–61 years) for the HS. Mean BMI was 29.7 kg/m^2 (range, 24.5–34.3 kg/m^2) for HI subjects and 29.7 kg/m^2 (range, 25.4–34.2 kg/m^2) for the HS. […] Three HI subjects had one adverse event (AE) each (bronchitis, worsening hepatic encephalopathy, hyponatremia), all moderate in severity; one HS had 1 AE of infusion site infiltration mild in severity. […] Table 1. Plasma Rezafungin PK Parameter Estimates in Subjects with Severe Hepatic Impairment or Normal Hepatic Function After a Single 400 mg IV Infusion of Rezafungin Figure 1. […] These findings support no RZF dose adjustment in subjects with severe hepatic impairment. Disclosures Voon Ong, PhD, Cidara Therapeutics (Employee, Shareholder) Taylor Sandison, MD, MPH, Cidara Therapeutics (Employee, Shareholder) Rebeca M. Melara, M.S., Altasciences (contract research organization) (Employee) Thomas C. Marbury, MD, Orlando Clinical Research Center (Employee, Other Financial or Material Support, Equity owner of Orlando Clinical Research Center) Alena Jandourek, MD, Cidara therapeutics (Consultant) Shawn Flanagan, PhD, Cidara Therapeutics (Employee, Shareholder)

[2] = Safety and tolerability of a single 400-mg IV infusion of rezafungin in subjects with severe hepatic impairment and matched healthy subjects; format: in vivo, human
From the text: as §1

[3] = HI (Child-Pugh class C, n = 8) versus matched HS (n = 8), plasma, reduction

For `CCCCCOc1ccc(-c2ccc(-c3ccc(C(=O)N[C@H]4C[C@@H](O)[C@@H](OCC[N+](C)(C)C)NC(=O)[C@@H]5[C@@H](O)[C@@H](C)CN5C(=O)[C@H]([C@@H](C)O)NC(=O)[C@H]([C@H](O)[C@@H](O)c5ccc(O)cc5)NC(=O)[C@@H]5C[C@@H](O)CN5C(=O)[C@H]([C@@H](C)O)NC4=O)cc3)cc2)cc1` [RZF, Rezafungin] ({pTerphenylCO(4''-OnC5H11)}-[Orn(4R-OH,5R-OCH2CH2NMe3+)]T[Hyp][hTyr(3S-OH,4S-OH)]T[Pro(3S-OH,4S-Me)]; lactam 1-C), the “RZF exposure (AUC) in subjects with HI, lower than that in HS” value [1, 3] was ~ 30%, the “RZF exposure (Cmax) in subjects with HI, lower than that in HS” value [1, 3] was ~ 30% and the half-life ([1]; both sexes, human, subjects with severe hepatic impairment (HI, Child-Pugh class C), read-out: half-life (converted)) was 121 h. For the same compound, the half-life ([1]; healthy subjects (HS) matched for age, sex and BMI) was 124 h, the “adverse events considered related to RZF” value ([2]; HI and HS subjects, all AEs resolved or resolving by the end of the study) was “No AEs were considered related to RZF” and the tolerability ([2]; HI subjects (Child-Pugh class C)) was “well tolerated”. The “number of subjects with an adverse event (AE)” value ([2]; HI subjects (n = 8), one AE each (bronchitis, worsening hepatic encephalopathy, hyponatremia), all moderate in severity) was “Three” and the “number of subjects with an adverse event (AE)” value ([2]; healthy subjects (n = 8), 1 AE of infusion site infiltration, mild in severity) was “one”.
